Structures are written as SMILES.

The target of one series is T1, Nitric oxide synthase 3 (Bos taurus, UniProt P29473).
T1 sequence (P29473 whole entry): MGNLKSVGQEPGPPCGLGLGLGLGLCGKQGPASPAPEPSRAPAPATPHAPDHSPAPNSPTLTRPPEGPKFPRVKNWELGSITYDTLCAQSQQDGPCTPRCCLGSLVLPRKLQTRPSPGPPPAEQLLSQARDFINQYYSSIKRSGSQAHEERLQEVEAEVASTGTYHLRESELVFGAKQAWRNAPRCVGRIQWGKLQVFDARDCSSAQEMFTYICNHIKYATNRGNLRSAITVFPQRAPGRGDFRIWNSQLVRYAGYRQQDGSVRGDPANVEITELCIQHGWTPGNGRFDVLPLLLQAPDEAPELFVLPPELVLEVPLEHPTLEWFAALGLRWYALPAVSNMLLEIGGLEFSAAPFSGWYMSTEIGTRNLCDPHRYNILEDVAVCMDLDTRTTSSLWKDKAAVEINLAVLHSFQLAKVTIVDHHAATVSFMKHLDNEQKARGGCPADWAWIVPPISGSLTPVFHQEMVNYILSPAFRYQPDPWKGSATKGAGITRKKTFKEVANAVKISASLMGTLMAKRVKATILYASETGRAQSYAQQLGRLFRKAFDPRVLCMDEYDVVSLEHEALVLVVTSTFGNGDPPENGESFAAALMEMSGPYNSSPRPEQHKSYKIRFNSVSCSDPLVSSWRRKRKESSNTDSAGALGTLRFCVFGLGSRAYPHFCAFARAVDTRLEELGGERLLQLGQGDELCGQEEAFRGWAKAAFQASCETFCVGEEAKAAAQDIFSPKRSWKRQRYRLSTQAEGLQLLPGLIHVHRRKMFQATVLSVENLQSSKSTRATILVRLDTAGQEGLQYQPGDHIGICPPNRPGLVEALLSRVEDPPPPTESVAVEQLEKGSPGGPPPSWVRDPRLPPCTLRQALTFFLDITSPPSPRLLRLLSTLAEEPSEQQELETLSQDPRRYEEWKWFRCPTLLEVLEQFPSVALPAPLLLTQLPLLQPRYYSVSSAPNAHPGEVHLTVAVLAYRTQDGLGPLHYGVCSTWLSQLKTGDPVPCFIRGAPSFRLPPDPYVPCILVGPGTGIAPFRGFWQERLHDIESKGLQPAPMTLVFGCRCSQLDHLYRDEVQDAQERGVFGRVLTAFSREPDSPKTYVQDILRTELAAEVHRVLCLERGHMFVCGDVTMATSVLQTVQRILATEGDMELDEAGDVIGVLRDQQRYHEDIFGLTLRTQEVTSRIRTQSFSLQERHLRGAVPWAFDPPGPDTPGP
The series is described as follows: Inhibition of recombinant bovine eNOS expressed in Escherichia coli using L-arginine as substrate after 30 secs by hemoglobin capture assay.

In series [1] the target is Nitric oxide synthase 1 (Rattus norvegicus, UniProt P29476).
Description: Inhibition of recombinant rat nNOS expressed in Escherichia coli using L-arginine as substrate after 30 secs by hemoglobin capture assay
For series [2], the target named is Nitric oxide synthase 1 (Homo sapiens, UniProt P29475).
Description: Inhibition of recombinant human nNOS expressed in Escherichia coli using L-arginine as substrate after 30 secs by hemoglobin capture assay
Series [3] has as its target T2, Nitric oxide synthase, inducible (Mus musculus, UniProt P29477).
T2 sequence (P29477 whole entry): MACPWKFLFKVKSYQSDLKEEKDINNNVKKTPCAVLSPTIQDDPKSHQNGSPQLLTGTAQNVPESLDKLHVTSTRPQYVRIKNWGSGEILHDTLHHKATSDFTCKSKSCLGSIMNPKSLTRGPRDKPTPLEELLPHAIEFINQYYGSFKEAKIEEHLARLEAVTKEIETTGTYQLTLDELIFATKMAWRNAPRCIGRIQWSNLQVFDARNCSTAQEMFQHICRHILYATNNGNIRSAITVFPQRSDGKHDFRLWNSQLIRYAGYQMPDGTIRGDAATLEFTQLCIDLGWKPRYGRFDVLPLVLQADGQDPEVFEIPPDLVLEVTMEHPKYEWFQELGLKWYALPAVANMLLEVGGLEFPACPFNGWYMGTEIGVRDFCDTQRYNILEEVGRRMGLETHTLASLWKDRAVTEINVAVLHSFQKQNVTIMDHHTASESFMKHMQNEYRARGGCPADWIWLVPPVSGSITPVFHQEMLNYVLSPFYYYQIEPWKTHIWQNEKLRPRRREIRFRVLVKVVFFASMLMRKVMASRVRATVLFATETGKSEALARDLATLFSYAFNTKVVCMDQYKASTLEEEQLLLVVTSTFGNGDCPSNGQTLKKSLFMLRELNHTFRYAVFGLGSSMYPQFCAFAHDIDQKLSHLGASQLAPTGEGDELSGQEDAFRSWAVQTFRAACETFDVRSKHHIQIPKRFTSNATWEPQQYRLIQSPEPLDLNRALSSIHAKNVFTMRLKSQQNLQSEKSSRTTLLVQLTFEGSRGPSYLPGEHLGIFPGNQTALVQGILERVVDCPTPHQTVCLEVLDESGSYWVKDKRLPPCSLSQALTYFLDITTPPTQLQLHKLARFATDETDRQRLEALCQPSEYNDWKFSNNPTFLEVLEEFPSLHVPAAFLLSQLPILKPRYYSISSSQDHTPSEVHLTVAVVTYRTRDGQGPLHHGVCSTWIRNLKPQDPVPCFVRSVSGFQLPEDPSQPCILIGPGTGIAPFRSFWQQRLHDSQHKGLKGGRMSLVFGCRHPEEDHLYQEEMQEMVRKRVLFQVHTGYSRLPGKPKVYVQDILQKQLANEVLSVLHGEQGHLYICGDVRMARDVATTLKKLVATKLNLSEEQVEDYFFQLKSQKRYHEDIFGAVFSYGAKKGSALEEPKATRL
The series is described as follows: Inhibition of recombinant mouse macrophage iNOS expressed in Escherichia coli using L-arginine as substrate after 30 secs by hemoglobin capture assay.

Series [4] can be described thus: Permeability from apical to basolateral side in human Caco2 cells assessed as drug recovery at 10 uM after 2 hrs by LC/MS/MS analysis. As to conditions: caco-2, 2 h. Type of series: ADME, cell-based. Background: Caco-2 cells form a polarised layer with tight junctions and transporters.
Series [5] in a line: Permeability from basolateral to apical side in human Caco2 cells assessed as drug recovery at 10 uM after 2 hrs by LC/MS/MS analysis. The series is classed as ADME, cell-based. As to conditions: caco-2, 2 h.

Sequence of Nitric oxide synthase 1 (Homo sapiens, UniProt P29475) (P29475 whole entry): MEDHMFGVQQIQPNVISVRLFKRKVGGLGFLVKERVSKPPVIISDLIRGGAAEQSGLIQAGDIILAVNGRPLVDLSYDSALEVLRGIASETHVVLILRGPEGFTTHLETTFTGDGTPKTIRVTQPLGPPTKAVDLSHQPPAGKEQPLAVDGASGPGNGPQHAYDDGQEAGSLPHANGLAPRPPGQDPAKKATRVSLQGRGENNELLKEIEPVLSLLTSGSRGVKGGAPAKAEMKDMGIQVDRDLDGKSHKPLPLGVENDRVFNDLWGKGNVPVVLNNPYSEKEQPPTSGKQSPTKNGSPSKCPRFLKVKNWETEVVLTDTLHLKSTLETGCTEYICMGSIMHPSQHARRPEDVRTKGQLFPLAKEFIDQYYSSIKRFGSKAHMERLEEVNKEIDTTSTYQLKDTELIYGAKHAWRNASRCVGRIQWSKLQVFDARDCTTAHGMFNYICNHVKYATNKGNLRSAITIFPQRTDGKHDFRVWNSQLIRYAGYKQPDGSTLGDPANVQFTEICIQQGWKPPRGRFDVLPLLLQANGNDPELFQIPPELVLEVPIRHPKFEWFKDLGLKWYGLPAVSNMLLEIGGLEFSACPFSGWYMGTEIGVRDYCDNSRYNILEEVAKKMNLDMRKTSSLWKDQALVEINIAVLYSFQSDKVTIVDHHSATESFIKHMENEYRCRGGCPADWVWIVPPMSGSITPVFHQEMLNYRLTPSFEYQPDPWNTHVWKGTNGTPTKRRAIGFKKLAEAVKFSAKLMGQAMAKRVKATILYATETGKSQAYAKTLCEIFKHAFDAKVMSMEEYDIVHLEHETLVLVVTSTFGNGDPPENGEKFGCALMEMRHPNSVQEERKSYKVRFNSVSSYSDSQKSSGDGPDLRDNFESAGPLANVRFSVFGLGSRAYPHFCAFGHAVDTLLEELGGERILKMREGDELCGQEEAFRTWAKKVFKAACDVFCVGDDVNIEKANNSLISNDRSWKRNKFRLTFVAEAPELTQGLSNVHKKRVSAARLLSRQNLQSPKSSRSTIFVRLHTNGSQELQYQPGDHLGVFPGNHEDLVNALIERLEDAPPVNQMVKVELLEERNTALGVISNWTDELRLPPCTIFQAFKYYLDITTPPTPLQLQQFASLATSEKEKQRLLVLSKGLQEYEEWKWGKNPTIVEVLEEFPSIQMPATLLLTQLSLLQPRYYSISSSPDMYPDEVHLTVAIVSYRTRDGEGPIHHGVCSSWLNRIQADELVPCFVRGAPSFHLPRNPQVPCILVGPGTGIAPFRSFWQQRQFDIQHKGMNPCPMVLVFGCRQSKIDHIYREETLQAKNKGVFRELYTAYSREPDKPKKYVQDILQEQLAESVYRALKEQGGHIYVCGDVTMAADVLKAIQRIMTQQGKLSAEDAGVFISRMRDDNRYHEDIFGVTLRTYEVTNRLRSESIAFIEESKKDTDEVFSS
Sequence of Nitric oxide synthase 1 (Rattus norvegicus, UniProt P29476) (P29476 whole entry): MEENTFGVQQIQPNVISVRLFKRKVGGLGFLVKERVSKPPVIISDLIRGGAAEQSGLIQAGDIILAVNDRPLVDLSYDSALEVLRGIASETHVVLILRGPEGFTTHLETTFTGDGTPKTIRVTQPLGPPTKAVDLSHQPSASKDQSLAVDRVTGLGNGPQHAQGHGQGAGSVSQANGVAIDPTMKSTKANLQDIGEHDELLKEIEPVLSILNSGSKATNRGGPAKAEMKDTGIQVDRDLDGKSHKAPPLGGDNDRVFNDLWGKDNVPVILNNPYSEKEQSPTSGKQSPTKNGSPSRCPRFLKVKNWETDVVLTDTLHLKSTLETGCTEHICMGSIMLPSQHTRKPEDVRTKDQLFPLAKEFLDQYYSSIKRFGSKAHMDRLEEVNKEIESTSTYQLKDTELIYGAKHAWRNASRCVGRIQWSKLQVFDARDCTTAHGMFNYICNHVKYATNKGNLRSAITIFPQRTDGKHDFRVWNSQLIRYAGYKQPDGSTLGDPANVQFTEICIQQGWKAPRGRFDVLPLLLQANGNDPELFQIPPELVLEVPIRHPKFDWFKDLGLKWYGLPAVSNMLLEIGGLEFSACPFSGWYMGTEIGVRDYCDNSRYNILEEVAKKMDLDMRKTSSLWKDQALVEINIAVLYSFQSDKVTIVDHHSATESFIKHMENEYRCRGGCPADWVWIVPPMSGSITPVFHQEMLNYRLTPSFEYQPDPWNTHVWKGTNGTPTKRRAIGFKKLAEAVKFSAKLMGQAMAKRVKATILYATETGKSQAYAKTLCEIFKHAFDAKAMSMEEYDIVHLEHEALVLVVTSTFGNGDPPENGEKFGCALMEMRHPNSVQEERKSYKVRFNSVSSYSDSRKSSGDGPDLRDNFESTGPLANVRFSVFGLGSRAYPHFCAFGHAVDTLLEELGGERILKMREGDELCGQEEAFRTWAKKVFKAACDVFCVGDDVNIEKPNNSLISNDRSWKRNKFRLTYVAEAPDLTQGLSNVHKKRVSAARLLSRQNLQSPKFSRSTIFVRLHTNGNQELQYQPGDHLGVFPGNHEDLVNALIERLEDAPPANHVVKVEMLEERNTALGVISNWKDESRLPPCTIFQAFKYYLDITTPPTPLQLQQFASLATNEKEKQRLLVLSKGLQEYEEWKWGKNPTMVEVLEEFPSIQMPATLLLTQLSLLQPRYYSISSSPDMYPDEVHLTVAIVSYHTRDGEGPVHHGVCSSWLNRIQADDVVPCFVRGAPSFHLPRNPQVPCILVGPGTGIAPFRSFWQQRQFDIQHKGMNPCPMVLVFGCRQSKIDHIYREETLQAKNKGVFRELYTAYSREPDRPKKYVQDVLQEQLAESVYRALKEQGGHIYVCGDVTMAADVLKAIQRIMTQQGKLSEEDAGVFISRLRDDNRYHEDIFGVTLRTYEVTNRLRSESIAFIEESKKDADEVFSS

As usually defined, the Ki is a dissociation constant, usually derived from enzyme kinetics or from competition with a known ligand. On to `Nc1ccc2ccc(CNCCCc3cccnc3)cc2n1`, for which the Ki was determined as 1040 nM at Nitric oxide synthase 3, 38 nM at Nitric oxide synthase 1 [1] and 108 nM on Nitric oxide synthase 1 [2].
Take `CN(C)c1ccc(CNCc2ccc3ccc(N)nc3c2)cc1`: the inhibitory constant (Ki) in series [3] came to 42200 nM; on Nitric oxide synthase 3, 8420 nM; on Nitric oxide synthase 1 [1] it was 522 nM.
In the case of `Cc1cc(CCNCc2ccc3c(C)cc(N)nc3c2)ccc1C#N`, the Drug recovery in series [4] is on record as 58.5%; in series [5], 83%.
With `Cc1ccncc1CCCNCc1ccc2ccc(N)nc2c1`, the results for the inhibition constant Ki (in series [3]; at Nitric oxide synthase 3; on Nitric oxide synthase 1 [2]) were 13800 nM, 562 nM and 130 nM, respectively.
With `CN(C)c1cccc(CNCc2ccc3ccc(N)nc3c2)c1`, the inhibition constant (Ki) was determined as 30100 nM in series [3], 6530 nM on Nitric oxide synthase 3, 421 nM at Nitric oxide synthase 1 [1] and 1020 nM at Nitric oxide synthase 1 [2].
`COc1ccncc1CCCNCc1ccc2ccc(N)nc2c1`: the inhibition constant Ki in series [3] came to 17200 nM.
